# Test results published in patent publication US12358892B2, “Metalloenzyme inhibitors for treating cancers, Alzheimer's disease, hemochromatosis, and other disorders” (Miralogx LLC, priority 2020, dated 2025).
# Entries after “also recorded” stand apart in the source; their conditions may differ.
# Columns and labels:
# B cells = test: BioMAP proliferation readout, B cells; type: cell-based, human; conditions: 670 μM, 220 μM, 74 μM; concentrations not associated with cytotoxicity
# From the text: (§1) The X-axis lists the quantitative protein-based biomarker readouts measured in each system. The Y-axis represents a log-transformed ratio of the biomarker readouts for the drug-treated sample (n=1) over vehicle controls (n≥6). The grey region around the Y-axis represents the 95% significance envelope generated from historical vehicle controls. Biomarker activities are annotated when two or more consecutive concentrations change in the same direction relative to vehicle controls, are outside of the significance envelope, and have at least one concentration with an effect size >20% (|log 10 ratio|>0.1). Biomarker key activities are described as modulated if these activities increase in some systems, but decrease in others. […] As summarized in Table 2 below, the compound was active with 35 annotated readouts. […]
# (§2) Human primary cells in BioMAP® systems are used at early passage (passage 4 or earlier) to minimize adaptation to cell culture conditions and preserve physiological signaling responses. […] Test agents prepared in either DMSO (small molecules; final concentration ≤0.1%) or PBS (biologics) are added at the indicated concentrations 1-hr before stimulation, and remain in culture for 24-hrs or as otherwise indicated (48-hrs, MyoF system; 72-hrs, BT system (soluble readouts); 168-hrs, BT system (secreted IgG)). […]
# T cells = test: BioMAP proliferation readout, T cells; type: cell-based, human; conditions: 670 μM, 220 μM; concentrations not associated with cytotoxicity
# From the text: as §1, §2
# [1] = system: human primary endothelial cells; test: BioMAP proliferation readout, endothelial cells; type: cell-based; conditions: 670 μM, 220 μM, 74 μM; concentrations not associated with cytotoxicity
# From the text: as §1, §2
# [2] = system: 12 human primary cell-based systems; test: BioMAP Diversity PLUS panel, protein biomarker readouts and cytotoxicity
# From the text: This example describes testing the compound prepared in Example 1 in the BioMAP Diversity PLUS (Eurofins Discovery, Burlingame, California) panel of 12 human primary cell-based systems designed to model different aspects of the human body in an in vitro format. The 12 systems in the Diversity PLUS panel allow test agent characterization in an unbiased way across a broad set of systems modeling various human disease states. BioMAP systems are constructed with one or more primary cell types from healthy human donors, with stimuli (such as cytokines or growth factors) added to capture relevant signaling networks that naturally occur in human tissue or pathological conditions. Vascular biology is modeled in both a Th1 (3C system) and a Th2 (4H system) inflammatory environment, as well as in a Th1 inflammatory state specific to arterial smooth muscle cells (CASM3C system). Additional systems recapitulate aspects of the systemic immune response including monocyte-driven Th1 inflammation (LPS system) or T cell stimulation (SAg system), chronic Th1 inflammation driven by macrophage activation (lMphg system) and the T cell-dependent activation of B cells that occurs in germinal centers (BT system). The BE3C system (Th1) and the BF4T system (Th2) represent airway inflammation of the lung, while the MyoF system models myofibroblast-lung tissue remodeling. Lastly, skin biology is addressed in the KF3CT system modeling Th1 cutaneous inflammation and the HDF3CGF system modeling wound healing.
# The X-axis lists the quantitative protein-based biomarker readouts measured in each system. The Y-axis represents a log-transformed ratio of the biomarker readouts for the drug-treated sample (n=1) over vehicle controls (n≥6). The grey region around the Y-axis represents the 95% significance envelope generated from historical vehicle controls. Biomarker activities are annotated when two or more consecutive concentrations change in the same direction relative to vehicle controls, are outside of the significance envelope, and have at least one concentration with an effect size >20% (|log 10 ratio|>0.1). Biomarker key activities are described as modulated if these activities increase in some systems, but decrease in others. Cytotoxicity is indicated on the profile plot by a thin black arrow above the X-axis, and antiproliferative effects are indicated by a thick grey arrow. Cytotoxicity and antiproliferative arrows only require one concentration to meet the indicated threshold for profile annotation. As summarized in Table 2 below, the compound was active with 35 annotated readouts. Specifically, the compound impacted inflammation-related activities (decreased Eotaxin 3, VCAM-1, MCP-1, SAA, sTNFα, MIP-1α; increased IL-1α, IL-6; modulated IL-8), immunomodulatory activities (decreased CD40, sIL-1β, sIgG, M-CSF, sIL-17A, sIL-6, sIL-17F, sIL-2), tissue remodeling activities (decreased PAI-1, uPAR, αSMA, Keratin 8/18; increased collagen I, MMP-1), and hemostasis-related activities (increased TF).
# BioMAP® panels consist of human primary cell-based systems designed to model different aspects of the human body in an in vitro format. BioMAP® systems are constructed with one or more primary cell types from healthy human donors, with stimuli (such as cytokines or growth factors) added to capture relevant signaling networks that naturally occur in human tissue or pathological conditions. Vascular biology is modeled in both a Th1 (3C system) and a Th2 (4H system) inflammatory environment, as well as in a Th1 inflammatory state specific to arterial smooth muscle cells (CASM3C system). Additional systems recapitulate aspects of the systemic immune response including monocyte-driven Th1 inflammation (LPS system) or T cell stimulation (SAg system), chronic Th1 inflammation driven by macrophage activation (Mphg system) and the T cell-dependent activation of B cells that occurs in germinal centers (BT system). […]
# fibroblasts = test: BioMAP proliferation readout, fibroblasts; type: cell-based, human; conditions: 670 μM; concentrations not associated with cytotoxicity
# From the text: as §1, §2
# [3] = system: coronary artery smooth muscle cells; test: BioMAP proliferation readout, coronary artery smooth muscle cells; type: cell-based, human; conditions: 670 μM, 220 μM, 74 μM; concentrations not associated with cytotoxicity
# From the text: as §1, §2
# [4] = Inflammation-related activities
# [5] = lower three concentrations tested, immunomodulatory
# [6] = lower three concentrations tested, inflammation-related
# [7] = lower three concentrations tested, tissue remodeling
smiles,measurement,setting,value
c1ncc(C2=NCCC2)cc1C1=NCCC1 [Example 1],antiproliferative effect on B cells,B cells,antiproliferative
same,antiproliferative effect on T cells,T cells,antiproliferative
same,antiproliferative effect on human primary endothelial cells,[1],antiproliferative
same,annotated readouts,[2]; Diversity PLUS Panel profile,35
same,Decreased Activity: M-CSF,[2]; Immunomodulatory activities,decreased; also recorded: M-CSF
same,Decreased Activity: sIL-6,[2]; Immunomodulatory activities,decreased; also recorded: inhibited; also recorded: sIL-6
same,Decreased Activity: sIL-10 (Table 2) / sIL-1β,[2]; Immunomodulatory activities,decreased
same,Decreased Activity: sIL-17F,[2]; Immunomodulatory activities,decreased; also recorded: SIL-17F
same,Decreased Activity: sIgG,[2]; Immunomodulatory activities,decreased and sigG
same,Decreased activity: CD40,[2]; Immunomodulatory activities,decreased and CD40
same,Decreased activity: sIL-2,[2]; Immunomodulatory activities,decreased
same,Decreased activity: sIL-17A,[2]; Immunomodulatory activities,decreased; also recorded: SIL-17A
same,Decreased Activity: Eotaxin 3,[2]; [4],decreased and Eot3
same,Decreased Activity: MIP-1α,[2]; [4],decreased
same,Decreased Activity: SAA,[2]; [4],decreased and SAA
same,Decreased Activity: sTNFα,[2]; [4],decreased; also recorded: inhibited; also recorded: sTNFα
same,Decreased activity: MCP-1,[2]; [4],decreased; also recorded: MCP-1
same,Decreased activity: VCAM-1,[2]; [4],decreased; also recorded: VCAM-1
same,Increased Activity: IL-1α,[2]; [4],increased and IL1a
same,Increased Activity: IL-6,[2]; [4],increased and IL6
same,Modulated Activity: IL-8,[2]; [4],modulated and IL8
same,Decreased Activity: Keratin 8/18,[2]; Tissue remodeling activities,decreased; also recorded: Ker8-18
same,Decreased Activity: PAI-1,[2]; Tissue remodeling activities,decreased; also recorded: PAI-1
same,Decreased Activity: uPAR,[2]; Tissue remodeling activities,decreased and uPAR
same,Decreased Activity: αSMA,[2]; Tissue remodeling activities,decreased and aSMA
same,Increased Activity: MMP-1,[2]; Tissue remodeling activities,"increased; also recorded: MMP1,"
same,Increased Activity: collagen I,[2]; Tissue remodeling activities,increased; also recorded: Col-1
same,annotated readouts,[2]; lower three concentrations tested,23
same,TF,"[2]; lower three concentrations tested, hemostasis-related",increased
same,sIL-1β,[2]; [5],decreased
same,sIL-2,[2]; [5],decreased
same,sIL-6,[2]; [5],decreased
same,sIL-17A,[2]; [5],decreased
same,sIL-17F,[2]; [5],decreased
same,sIgG,[2]; [5],decreased
same,Eotaxin 3,[2]; [6],decreased
same,IL-1α,[2]; [6],increased
same,IL-6,[2]; [6],increased
same,IL-8,[2]; [6],increased
same,MCP-1,[2]; [6],decreased
same,SAA,[2]; [6],decreased
same,VCAM-1,[2]; [6],decreased
same,sTNFα,[2]; [6],decreased
same,MMP-1,[2]; [7],increased
same,PAI-1,[2]; [7],decreased
same,collagen I,[2]; [7],increased
same,antiproliferative effect on fibroblasts,fibroblasts,antiproliferative
same,antiproliferative effect on coronary artery smooth muscle cells,[3],antiproliferative
